For this experiment, the system named is bronchoconstriction induced by PAF. The experiment is described as follows: Effect on bronchoconstriction induced by platelet activating factor (PAF) in guinea pigs (Konzett-Rossler method). To be noted: Cavia porcellus, po, drug 30 mg/kg orally in 5% gum arabic solution 1 hour before PAF (1 μg/kg i.v.), recorded for 15 minutes. It is filed as in vivo, guinea pig (male Hartley). Here is the method: Effect on Bronchoconstriction Induced by Platelet Activating Factor (PAF) in Guinea Pigs
Male Hartley guinea pigs (body weight 500 g) were used. The bronchoconstriction reaction in the guinea pig which has intravenously received PAF (1 μg/Kg) was measured by the Konzett-Rossler method. The trachea of the guinea pig with its back fixed was incised under anesthesia condition with urethane (intraperitoneal injection, 1.5 g/kg) and connected with an artificial respirator via a cannula. The branch of the tracheal cannula was connected with a transducer (7020 type, Ugobasile). Air was sent to the trachea at the volume of 3-7 ml/stroke, at the rate of 70 strokes/min. at load pressure of 10 cm H2 O to lung and overflowed air volume was recorded with Rectegraph (Recte-Hori-8s, Sanei Sokuki) via the transducer. After the guinea pig was treated with galamine (1 mg/kg, i.v.), PAF (1 μg/kg) dissolved in a physiological saline solution was administered to the guinea pig via a jugular venous cannula and the bronchoconstriction reaction induced thereby was recorded for 15 minutes. The drug (30 mg/kg) suspended in a 5% gum arabic solution was administered orally 1 hour before the injection of PAF.

Molecules are shown by their SMILES.

For orientation: inhibition in vivo means the percentage by which the read-out fell short of the control. A high value points to strong suppression. Regarding `O=S(=O)(CCCSc1ccc2nccn2n1)NC1CC1` [Example 6], the inhibition in vivo at 30 mg/kg was 47%.
Molecule `CNS(=O)(=O)CCCSc1ccc2nccn2n1` [Example 3] showed an inhibition in vivo at 30 mg/kg of 41%.

The values above are taken from patent US5202324A, “Imidazopyridazines” (Takeda Chemical Industries, Ltd., priority 1989, dated 1993).
